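Compound exposure: 48 hours, 5 concentrations, 96-well plates. GI50: concentration for 50% inhibition of growth.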 The source made the active and inactive calls. Rule as the data show it: active = GI50 up to about 1.1 µM and inactive = higher.
Legend:
Assay in all cases: growth of human tumour cells (NCI), 48 h
786-0 = tested on: 786-0
A549 = tested on: A549
ACHN = tested on: ACHN
CAKI-1 = tested on: CAKI-1
CCRF-CEM = tested on: CCRF-CEM
COLO 205 = tested on: COLO 205
DLD-1 = tested on: DLD-1
DMS-114 = tested on: DMS-114
DMS-273 = tested on: DMS-273
EKVX = tested on: EKVX
HCT-116 = tested on: HCT-116
HCT-15 = tested on: HCT-15
HL-60 = tested on: HL-60
HOP-18 = tested on: HOP-18
HOP-62 = tested on: HOP-62
HOP-92 = tested on: HOP-92
HT-29 = tested on: HT-29
IGROV-1 = tested on: IGROV-1
K562 = tested on: K562
KM-20L2 = tested on: KM-20L2
KM12 = tested on: KM12
LOX IMVI = tested on: LOX IMVI
LXFL 529 = tested on: LXFL 529
M14 = tested on: M14
M19-MEL = tested on: M19-MEL
MOLT-4 = tested on: MOLT-4
Malme-3M = tested on: Malme-3M
NCI-H226 = tested on: NCI-H226
NCI-H23 = tested on: NCI-H23
NCI-H460 = tested on: NCI-H460
NCI-H522 = tested on: NCI-H522
OVCAR-3 = tested on: OVCAR-3
OVCAR-4 = tested on: OVCAR-4
OVCAR-5 = tested on: OVCAR-5
OVCAR-8 = tested on: OVCAR-8
RXF 393 = tested on: RXF 393
RXF 631 = tested on: RXF 631
SF-268 = tested on: SF-268
SF-295 = tested on: SF-295
SF-539 = tested on: SF-539
SK-MEL-28 = tested on: SK-MEL-28
SK-MEL-2 = tested on: SK-MEL-2
SK-MEL-5 = tested on: SK-MEL-5
SK-OV-3 = tested on: SK-OV-3
SN12C = tested on: SN12C
SNB-19 = tested on: SNB-19
SNB-75 = tested on: SNB-75
SNB-78 = tested on: SNB-78
SR = tested on: SR
SW-620 = tested on: SW-620
TK-10 = tested on: TK-10
U-251 = tested on: U-251
UACC-257 = tested on: UACC-257
UACC-62 = tested on: UACC-62
UO-31 = tested on: UO-31
XF498 = tested on: XF498
A498 = tested on: A498
HCC 2998 = tested on: HCC 2998
RPMI-8226 = tested on: RPMI-8226

SMILES: CC(C)(C)OC(=O)c1cccnc1/C=N/O
- GI50 (786-0): 67.6 µM (inactive)
- GI50 (A549): > 100 µM (inactive)
- GI50 (ACHN): 24 µM (inactive)
- GI50 (CAKI-1): > 100 µM (inactive)
- GI50 (CCRF-CEM): 67.1 µM (inactive)
- GI50 (COLO 205): > 100 µM (inactive)
- GI50 (DLD-1): > 100 µM (inactive)
- GI50 (DMS-114): > 100 µM (inactive)
- GI50 (DMS-273): > 100 µM (inactive)
- GI50 (EKVX): > 100 µM (inactive)
- GI50 (HCT-116): > 100 µM (inactive)
- GI50 (HCT-15): 51.9 µM
- GI50 (HL-60): > 100 µM (inactive)
- GI50 (HOP-18): > 100 µM (inactive)
- GI50 (HOP-62): > 100 µM (inactive)
- GI50 (HOP-92): > 100 µM (inactive)
- GI50 (HT-29): > 100 µM (inactive)
- GI50 (IGROV-1): > 100 µM (inactive)
- GI50 (K562): > 100 µM (inactive)
- GI50 (KM-20L2): 51.4 µM (inactive)
- GI50 (KM12): > 100 µM (inactive)
- GI50 (LOX IMVI): > 100 µM (inactive)
- GI50 (LXFL 529): > 100 µM (inactive)
- GI50 (M14): > 100 µM (inactive)
- GI50 (M19-MEL): > 100 µM (inactive)
- GI50 (MOLT-4): 68.2 µM (inactive)
- GI50 (Malme-3M): > 100 µM (inactive)
- GI50 (NCI-H226): > 100 µM (inactive)
- GI50 (NCI-H23): > 100 µM (inactive)
- GI50 (NCI-H460): 48.4 µM (inactive)
- GI50 (NCI-H522): > 100 µM (inactive)
- GI50 (OVCAR-3): 53.1 µM (inactive)
- GI50 (OVCAR-4): > 100 µM (inactive)
- GI50 (OVCAR-5): > 100 µM (inactive)
- GI50 (OVCAR-8): > 100 µM (inactive)
- GI50 (RXF 393): > 100 µM (inactive)
- GI50 (RXF 631): > 100 µM (inactive)
- GI50 (SF-268): > 100 µM (inactive)
- GI50 (SF-295): 78.7 µM (inactive)
- GI50 (SF-539): > 100 µM (inactive)
- GI50 (SK-MEL-28): > 100 µM (inactive)
- GI50 (SK-MEL-2): > 100 µM (inactive)
- GI50 (SK-MEL-5): > 100 µM (inactive)
- GI50 (SK-OV-3): > 100 µM (inactive)
- GI50 (SN12C): > 100 µM (inactive)
- GI50 (SNB-19): > 100 µM (inactive)
- GI50 (SNB-75): > 100 µM (inactive)
- GI50 (SNB-78): > 100 µM (inactive)
- GI50 (SR): > 100 µM (inactive)
- GI50 (SW-620): 58.6 µM (inactive)
- GI50 (TK-10): > 100 µM (inactive)
- GI50 (U-251): > 100 µM (inactive)
- GI50 (UACC-257): > 100 µM (inactive)
- GI50 (UACC-62): > 100 µM (inactive)
- GI50 (UO-31): > 100 µM (inactive)
- GI50 (XF498): > 100 µM (inactive)

SMILES: CC1(C)C(=O)N(c2ccccc2)C(=O)N1c1nc2ccccc2[nH]1
- GI50 (786-0): > 100 µM (inactive)
- GI50 (A498): > 100 µM (inactive)
- GI50 (A549): > 100 µM (inactive)
- GI50 (ACHN): > 100 µM (inactive)
- GI50 (CAKI-1): > 100 µM (inactive)
- GI50 (CCRF-CEM): 21.4 µM (inactive)
- GI50 (COLO 205): 49.7 µM (inactive)
- GI50 (DLD-1): > 100 µM (inactive)
- GI50 (DMS-114): 38.7 µM (inactive)
- GI50 (DMS-273): > 100 µM (inactive)
- GI50 (EKVX): > 100 µM (inactive)
- GI50 (HCC 2998): > 100 µM (inactive)
- GI50 (HCT-116): 37.4 µM (inactive)
- GI50 (HCT-15): 94.2 µM
- GI50 (HL-60): 63.2 µM (inactive)
- GI50 (HOP-18): > 100 µM (inactive)
- GI50 (HOP-62): > 100 µM (inactive)
- GI50 (HOP-92): > 100 µM (inactive)
- GI50 (HT-29): 65.6 µM (inactive)
- GI50 (IGROV-1): > 100 µM (inactive)
- GI50 (K562): 53.6 µM (inactive)
- GI50 (KM-20L2): > 100 µM (inactive)
- GI50 (KM12): > 100 µM (inactive)
- GI50 (LOX IMVI): 85.9 µM (inactive)
- GI50 (LXFL 529): 85.3 µM (inactive)
- GI50 (M14): > 100 µM (inactive)
- GI50 (M19-MEL): > 100 µM (inactive)
- GI50 (MOLT-4): 40.9 µM (inactive)
- GI50 (Malme-3M): > 100 µM (inactive)
- GI50 (NCI-H226): > 100 µM (inactive)
- GI50 (NCI-H23): > 100 µM (inactive)
- GI50 (NCI-H460): 71.9 µM (inactive)
- GI50 (NCI-H522): 54.7 µM (inactive)
- GI50 (OVCAR-3): > 100 µM (inactive)
- GI50 (OVCAR-5): > 100 µM (inactive)
- GI50 (OVCAR-8): > 100 µM (inactive)
- GI50 (RPMI-8226): 33.7 µM (inactive)
- GI50 (RXF 393): > 100 µM (inactive)
- GI50 (RXF 631): > 100 µM (inactive)
- GI50 (SF-268): > 100 µM (inactive)
- GI50 (SF-295): > 100 µM (inactive)
- GI50 (SK-MEL-28): > 100 µM (inactive)
- GI50 (SK-MEL-2): > 100 µM (inactive)
- GI50 (SK-MEL-5): > 100 µM (inactive)
- GI50 (SK-OV-3): > 100 µM (inactive)
- GI50 (SN12C): > 100 µM (inactive)
- GI50 (SNB-19): > 100 µM (inactive)
- GI50 (SNB-75): > 100 µM (inactive)
- GI50 (SNB-78): > 100 µM (inactive)
- GI50 (SR): 78.7 µM (inactive)
- GI50 (SW-620): 17.4 µM (inactive)
- GI50 (TK-10): > 100 µM (inactive)
- GI50 (UACC-257): > 100 µM (inactive)
- GI50 (UACC-62): > 100 µM (inactive)
- GI50 (UO-31): > 100 µM (inactive)
- GI50 (XF498): 92.7 µM (inactive)
